Numbers after ± are expanded uncertainties.
Experiments:
[1] = Liquid; for vapor or sublimation pressure: Twin ebulliometer
[2] = refractive index (Na D-line) (dimensionless); details: 298.15 K; 101.33 kPa; Liquid; Standard Abbe refractometry

Structure (SMILES) | vapor or sublimation pressure ([1]; 292.33 K) | vapor or sublimation pressure ([1]; 303.83 K) | vapor or sublimation pressure ([1]; 311.14 K) | vapor or sublimation pressure ([1]; 317.9 K) | vapor or sublimation pressure ([1]; 323.09 K) | vapor or sublimation pressure ([1]; 326.8 K) | vapor or sublimation pressure ([1]; 330.56 K) | vapor or sublimation pressure ([1]; 333.94 K) | vapor or sublimation pressure ([1]; 337.18 K) | vapor or sublimation pressure ([1]; 339.97 K) | vapor or sublimation pressure ([1]; 342.3 K) | refractive index [2] | mass density ([1]; 298.15 K, 101.33 kPa)
CCO [ethanol] | 5.59 ± 0.15 kPa | 10.86 ± 0.15 kPa | 16.15 ± 0.16 kPa | 22.84 ± 0.17 kPa | 29.41 ± 0.18 kPa | 35.11 ± 0.19 kPa | 41.76 ± 0.21 kPa | 48.61 ± 0.22 kPa | 56.06 ± 0.24 kPa | 63.2 ± 0.26 kPa | 69.73 ± 0.27 kPa | 1.3596 ± 0.0004 | 
CO [methanol] |  |  |  |  |  |  |  |  |  |  |  | 1.3266 ± 0.0004 | 786.59 ± 0.62 kg/m3
